Some test systems named below: HCT-116 colon; HL-60(TB) leukemia; HOP-62 NSCLC; HT29 colon; MALME-3M melanoma; NCI-H460 lung; OVCAR-4 ovarian; SN12C renal; SNB-19 CNS; SW-620 colon; U251 CNS; MOLT-4 leukemia.
Common to all, as to assay: DTP human tumour cell line panel, 48 h

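Results reflect a 48-hour exposure of cells in 96-well plates to compound at five concentrations. At the GI50, growth is halved. TGI denotes the concentration required for complete inhibition of growth.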

Usually TGI stands for the concentration giving total growth inhibition. The low end stands for more potent growth arrest, the high end for less potent growth arrest. The term GI50 denotes the concentration that inhibits growth by half.

`CC1(C)[C@@H]2CC[C@]1(C)[C@H](OC(=O)/C=C/c1ccccc1)C2`: the total growth inhibition concentration (TGI) with HCT-116 colon is 38.1 µM; in the test on HL-60(TB) leukemia, 40.5 µM; in the test on HOP-62 NSCLC it was 63.1 µM; in the test on HT29 colon it was 33.7 µM; in the test on MALME-3M melanoma it was 38.5 µM; with NCI-H460 lung, greater than 100 µM. The TGI in the test with OVCAR-4 ovarian is 55.1 µM; with SN12C renal it was 34.3 µM; in the test with SNB-19 CNS, 36.3 µM; in the test with SW-620 colon, 30.6 µM; in the test on U251 CNS, 32.4 µM.

Regarding `CC(CC(N)C(=O)O)C(=O)O` (stereo unspecified), the TGI with HCT-116 colon, with HL-60(TB) leukemia, in the test with HOP-62 NSCLC, with HT29 colon, in the test with MALME-3M melanoma and in the test on MOLT-4 leukemia was greater than 100 µM each time. In addition, the TGI in the test with NCI-H460 lung, in the test on OVCAR-4 ovarian, in the test with SN12C renal, in the test with SNB-19 CNS, with SW-620 colon and in the test on U251 CNS was greater than 100 µM throughout.

`C=CCN1/C(=C(\C#N)c2nc3ccccc3[nH]2)Sc2c1nc[nH]c2=O`: the concentration for total growth inhibition (TGI) in the test on HCT-116 colon, with HL-60(TB) leukemia, in the test on HOP-62 NSCLC, in the test with HT29 colon, in the test on MALME-3M melanoma and with MOLT-4 leukemia was greater than 100 µM in each case. For the same compound, the concentration for total growth inhibition (TGI) in the test on NCI-H460 lung, in the test with OVCAR-4 ovarian, with SN12C renal, in the test on SNB-19 CNS, with SW-620 colon and in the test on U251 CNS was greater than 100 µM throughout.

`COc1cc(OC)cc(-c2ccc(-c3ccc(C(=N)N)cn3)o2)c1`: the GI50 in the test with HL-60(TB) leukemia was 2.12 µM; with MALME-3M melanoma, 1.82 µM; in the test on MOLT-4 leukemia, 1.74 µM; in the test on NCI-H460 lung it was 1.63 µM; in the test with OVCAR-4 ovarian, 1.74 µM; in the test on SW-620 colon, 1.67 µM. The GI50 with U251 CNS was 1.62 µM. Also, the concentration for total growth inhibition (TGI) with HL-60(TB) leukemia amounted to 4.38 µM; with MALME-3M melanoma, 3.49 µM; in the test on MOLT-4 leukemia, 3.59 µM; in the test with NCI-H460 lung, 3.16 µM; with OVCAR-4 ovarian, 3.46 µM; in the test on SW-620 colon, 3.25 µM. In the test on U251 CNS, this compound came in with a total growth inhibition concentration (TGI) of 3.02 µM.

`COc1nc2cccc(C(O)c3ccccc3)c2nc1-c1ccccc1` (stereo unspecified): the TGI was 16.2 µM in the test on HCT-116 colon; 18 µM with HL-60(TB) leukemia; 19.1 µM with HOP-62 NSCLC; 72.4 µM in the test with HT29 colon; greater than 100 µM with MALME-3M melanoma; 34.7 µM in the test with MOLT-4 leukemia. Also, the TGI was 24.8 µM in the test with NCI-H460 lung; greater than 100 µM with OVCAR-4 ovarian; 25.6 µM with SN12C renal; 51.1 µM in the test with SNB-19 CNS; 16.6 µM in the test on SW-620 colon; 16.8 µM in the test with U251 CNS.

For `N#CC(N=Nc1ccccc1C(=O)O)C(N)=O` (stereo unspecified), the TGI in the test on HCT-116 colon, in the test with HL-60(TB) leukemia, in the test on HOP-62 NSCLC, with HT29 colon, in the test on MALME-3M melanoma and with MOLT-4 leukemia was greater than 100 µM in each case. Moreover, the concentration for total growth inhibition (TGI) in the test on NCI-H460 lung, in the test on OVCAR-4 ovarian, in the test on SN12C renal, in the test with SNB-19 CNS, in the test on SW-620 colon and with U251 CNS was greater than 100 µM throughout.

On to `Cc1[nH]c(=O)[nH]c(=O)c1/C=C/C(=O)O` (tested in a mixture with another compound), for which the TGI in the test on HCT-116 colon, in the test on HL-60(TB) leukemia, in the test with HOP-62 NSCLC, with HT29 colon, with MALME-3M melanoma and in the test on MOLT-4 leukemia was greater than 625 µM in each case. Moreover, the TGI in the test with NCI-H460 lung, in the test on OVCAR-4 ovarian, with SN12C renal, with SNB-19 CNS, in the test on SW-620 colon and in the test on U251 CNS was greater than 625 µM throughout.

On to `OCC1COc2cc(Cl)c(Cl)cc2O1` (stereo unspecified), for which the TGI in the test on HCT-116 colon, in the test with HL-60(TB) leukemia, with HOP-62 NSCLC, in the test with HT29 colon, in the test with MALME-3M melanoma and in the test on MOLT-4 leukemia was greater than 10 µM in each case. Further, the TGI in the test with NCI-H460 lung, in the test with OVCAR-4 ovarian, in the test on SN12C renal, with SNB-19 CNS, in the test on SW-620 colon and in the test with U251 CNS was greater than 10 µM throughout.

For the compound `CCC(C)C(N)C(=O)NC(CC(N)=O)C(=O)NC(CC(C)C)C(=O)NC(CCCCN)C(=O)NC(C)C(=O)NC(CC(C)C)C(=O)NC(C)C(=O)NC(C)C(=O)NC(CC(C)C)C(=O)NC(C)C(=O)NC(CCCCN)C(=O)NC(CCCCN)C(=O)NC(C(=O)NC(CC(C)C)C(N)=O)C(C)CC` (stereo unspecified), the TGI with HCT-116 colon is 29 µM; in the test on HL-60(TB) leukemia, 7.23 µM; in the test with HOP-62 NSCLC, 8.55 µM; with HT29 colon it was 35.9 µM; with MALME-3M melanoma it was 10.7 µM; in the test with MOLT-4 leukemia it was 38.5 µM. Besides, the TGI in the test on NCI-H460 lung stood at 28.9 µM; in the test on OVCAR-4 ovarian, 31.9 µM; in the test with SN12C renal, 26.4 µM; with SNB-19 CNS it was 27.8 µM; in the test with SW-620 colon, 37.4 µM; in the test with U251 CNS, 30.9 µM.

`O=c1[nH]nc(NCc2ccccc2)c2nnn(Cc3ccccc3)c12`: the total growth inhibition concentration (TGI) in the test with HCT-116 colon, in the test on HL-60(TB) leukemia, in the test with HOP-62 NSCLC, in the test on HT29 colon, in the test on MALME-3M melanoma and in the test with MOLT-4 leukemia was greater than 100 µM throughout. The concentration for total growth inhibition (TGI) in the test with NCI-H460 lung, with OVCAR-4 ovarian, in the test with SN12C renal, with SNB-19 CNS and with U251 CNS was greater than 100 µM throughout.

In the case of `NCCSc1cc(O)c2c(c1N)C(=O)c1ccccc1C2=O`, the TGI in the test on HCT-116 colon was greater than 100 µM; with HL-60(TB) leukemia, 66.8 µM; with HOP-62 NSCLC it was greater than 100 µM; in the test on HT29 colon it was greater than 100 µM; in the test on MALME-3M melanoma it was 75.5 µM; in the test with MOLT-4 leukemia it was 63.8 µM. Also, the total growth inhibition concentration (TGI) in the test on NCI-H460 lung, with OVCAR-4 ovarian, with SN12C renal, in the test with SNB-19 CNS, in the test on SW-620 colon and with U251 CNS was greater than 100 µM each time.

Take `CSCC[C@@H]1C(=O)N(C)[C@H](C(C)(C)C)N1C(=O)c1ccccc1`: the total growth inhibition concentration (TGI) in the test with HCT-116 colon, in the test with HL-60(TB) leukemia, in the test with HOP-62 NSCLC, with HT29 colon, in the test on MALME-3M melanoma and in the test on MOLT-4 leukemia was greater than 100 µM in each case. Also, the total growth inhibition concentration (TGI) in the test with NCI-H460 lung, with OVCAR-4 ovarian, with SN12C renal, in the test with SNB-19 CNS, in the test with SW-620 colon and in the test with U251 CNS was greater than 100 µM each time.

Consider `COc1cc2c3cc1Oc1c(O)c(OC)cc4c1C(Cc1ccc(O)c(c1)Oc1ccc(cc1)CC3N(C)CC2)N(C)CC4` (stereo unspecified), for which the TGI amounted to 22.5 µM in the test on HCT-116 colon; 48.4 µM in the test with HL-60(TB) leukemia; 33.8 µM in the test with HOP-62 NSCLC; 18.9 µM in the test on HT29 colon; 32.8 µM in the test on MALME-3M melanoma; 30.8 µM with MOLT-4 leukemia. In addition, the TGI in the test on NCI-H460 lung amounted to 28.4 µM; with OVCAR-4 ovarian it was 28.2 µM; with SN12C renal, 28.6 µM; with SNB-19 CNS it was 68 µM; with SW-620 colon it was 16.7 µM; with U251 CNS, 27.3 µM.
